Reference: PMC8224453, “A New PqsR Inverse Agonist Potentiates Tobramycin Efficacy to Eradicate Pseudomonas aeruginosa Biofilms” (Advanced Science, 2021)
Values joined by “and” are separate entries in the source; they are usually repeats but may differ in a detail not shown here. Identical values can stand only once.

Columns and labels:
[1] = Metabolic stability, guinea pig liver S9; format: in vitro ADME; conditions: pooled liver S9 fraction, Table S4, read-out: t1/2 guinea pig liver S9
Experimental: subtraction and plotted using GraphPad Prism 8.4.2 (GraphPad Software, San Diego, CA, […]
USA). Solubility (S) was determined based on the First X value of AUC function using a […]
(§1) For the evaluation of combined phase I and phase II metabolic stability, the compound (1 μM) was incubated with 1 mg/mL pooled liver S9 fraction from the respective species (Xenotech), […]
(§2) 2 mM NADPH, 1 mM UDPGA, 10 mM MgCl2, 5 mM GSH and 0.1 mM PAPS at 37 °C for […]
(§3) 0, 5, 15, 30 or 60 min. The metabolic stability of Testosterone (1 μM) and verapamil (1 μM) […]
(§4) were determined in parallel to confirm the enzymatic activity of the S9 fraction. The […]
(§5) incubation was stopped by precipitation of S9 enzymes with 2 volumes of cold acetonitrile […]
(§6) containing internal standard (750 nM Diphenhydramine). Samples were stored on ice for 10 […]
(§7) min and precipitated protein was removed by centrifugation (10 min, 4 °C, 17,000 g).
(§8) Concentration of the remaining test compound at the different time points was analyzed by […]
(§9) LC-MS/MS (TSQ Quantum Access MAX, Thermo Fisher, Dreieich, Germany) and used to […]
(§10) determine half-life (t1/2). Stability of compound 4 in further S9 fractions are summarized in […]
(§11) Table S4. Metabolic stability studies in various S9 fractions. […]
guinea pig liver S9 92.5 ± 5.4
5.6. Permeability studies
Permeability of compound 4 and 17 was assessed in vitro with Calu-3 HTB-55 cell line (ATCC). […]

[2] = system: eDNA production in PA biofilm; test: Inhibition of eDNA production in biofilm; format: cell-based; conditions: Pseudomonas aeruginosa
PqsR = target: T1, PqsR (Pseudomonas aeruginosa, UniProt Q9I4X0); test: PqsR β-galactosidase reporter-gene assay in E. coli DH5α; format: cell-based
T1 construct: which expresses PqsR and the β-galactosidase LacZ under the control of the pqsA promoter; expressed in transfected cells; host or cells: E. coli DH5α carrying plasmid pEAL08-2
T1 sequence (Q9I4X0 whole entry): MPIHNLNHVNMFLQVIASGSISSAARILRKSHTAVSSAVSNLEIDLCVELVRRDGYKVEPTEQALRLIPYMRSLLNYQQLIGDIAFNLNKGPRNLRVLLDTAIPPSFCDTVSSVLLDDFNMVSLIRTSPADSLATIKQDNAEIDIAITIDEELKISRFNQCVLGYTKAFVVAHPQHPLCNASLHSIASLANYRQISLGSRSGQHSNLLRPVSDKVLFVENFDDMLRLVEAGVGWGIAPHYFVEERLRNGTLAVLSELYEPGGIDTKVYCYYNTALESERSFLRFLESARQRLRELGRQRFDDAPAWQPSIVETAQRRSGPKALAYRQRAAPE
Experimental: 3. Primary Activity Assays
The inverse agonistic/antagonistic activity of potential PqsR ligands was evaluated in a β-galactosidase reporter gene assay in E. coli as previously described.[3] In short, test compounds were co-incubated with E. coli DH5α cells containing the plasmid pEAL08-2,[4] which expresses PqsR and the β-galactosidase LacZ under the control of the pqsA promoter.
The inverse agonistic/antagonistic activity of compounds was measured in the presence of 50 nM PQS. After incubation, galactosidase activity was quantified photometrically and expressed as ratio of controls. The given IC50 values represent the mean of at least two independent experiments using at least eight different concentrations of test compound with n = 4. Non-linear regression analysis was performed using OriginPro 2020. […]

[3] = Metabolic stability, mouse liver S9; format: in vitro ADME
Experimental: as §1, §2, §3, §4, §5, §6, §7, §8, §9, §10, §11

CYP1A = target: T2, CYP1A (Homo sapiens, UniProt P05177); test: CYP inhibition (Cyprotex); format: in vitro ADME; conditions: read-out: CYP inhibition 1A
T2 construct: Cyprotex (contract assay)
T2 sequence (P05177 2-516 limits assumed): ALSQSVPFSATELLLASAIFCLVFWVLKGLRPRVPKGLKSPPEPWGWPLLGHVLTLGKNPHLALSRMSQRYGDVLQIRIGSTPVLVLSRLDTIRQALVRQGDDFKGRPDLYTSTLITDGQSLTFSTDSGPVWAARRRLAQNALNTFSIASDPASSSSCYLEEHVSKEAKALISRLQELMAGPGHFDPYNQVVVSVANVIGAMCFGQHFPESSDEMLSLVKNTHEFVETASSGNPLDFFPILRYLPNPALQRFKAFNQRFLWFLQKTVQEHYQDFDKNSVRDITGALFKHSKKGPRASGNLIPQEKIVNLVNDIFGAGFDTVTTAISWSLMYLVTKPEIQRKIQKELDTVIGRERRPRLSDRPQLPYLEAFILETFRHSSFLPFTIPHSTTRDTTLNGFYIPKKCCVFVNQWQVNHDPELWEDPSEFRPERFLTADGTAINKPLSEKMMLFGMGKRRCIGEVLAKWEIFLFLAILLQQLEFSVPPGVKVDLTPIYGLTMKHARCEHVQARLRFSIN
Experimental: (§12) 5.2. CYP and hERG inhibition
(§13) Assessment of in vitro drug safety regarding Cytochrom P450 (CYP) inhibition and inhibiton of human ether-à-go-go related gene (hERG) channel with a functional (patch-clamp-based) assay were performed at Cyprotex. Detailed information about the assays can be found in: https://www.cyprotex.com/admepk/in-vitro-metabolism/cytochrome-p450-inhibition, and […]

CYP2C9 = target: T3, CYP2C9 (Homo sapiens, UniProt P11712); test: CYP inhibition (Cyprotex); format: in vitro ADME; conditions: read-out: CYP inhibition 2C9
T3 construct: Cyprotex (contract assay)
T3 sequence (P11712 whole entry): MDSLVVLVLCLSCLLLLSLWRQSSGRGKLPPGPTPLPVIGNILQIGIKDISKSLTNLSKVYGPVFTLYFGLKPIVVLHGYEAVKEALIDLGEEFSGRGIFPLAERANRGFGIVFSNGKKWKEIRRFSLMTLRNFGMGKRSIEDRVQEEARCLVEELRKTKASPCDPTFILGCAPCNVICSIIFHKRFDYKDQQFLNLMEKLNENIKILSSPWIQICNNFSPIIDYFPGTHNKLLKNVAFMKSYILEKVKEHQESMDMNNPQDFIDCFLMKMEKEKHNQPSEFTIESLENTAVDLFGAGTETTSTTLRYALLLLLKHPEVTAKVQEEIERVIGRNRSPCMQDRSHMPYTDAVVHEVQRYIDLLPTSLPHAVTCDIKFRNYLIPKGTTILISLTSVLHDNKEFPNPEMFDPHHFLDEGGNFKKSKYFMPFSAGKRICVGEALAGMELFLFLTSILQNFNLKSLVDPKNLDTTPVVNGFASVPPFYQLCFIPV
Experimental: as §12, §13

CYP3A4 = target: T4, CYP3A4 (Homo sapiens, UniProt P08684); test: CYP inhibition (Cyprotex); format: in vitro ADME; conditions: read-out: CYP inhibition 3A4
T4 construct: Cyprotex (contract assay)
T4 sequence (P08684 whole entry): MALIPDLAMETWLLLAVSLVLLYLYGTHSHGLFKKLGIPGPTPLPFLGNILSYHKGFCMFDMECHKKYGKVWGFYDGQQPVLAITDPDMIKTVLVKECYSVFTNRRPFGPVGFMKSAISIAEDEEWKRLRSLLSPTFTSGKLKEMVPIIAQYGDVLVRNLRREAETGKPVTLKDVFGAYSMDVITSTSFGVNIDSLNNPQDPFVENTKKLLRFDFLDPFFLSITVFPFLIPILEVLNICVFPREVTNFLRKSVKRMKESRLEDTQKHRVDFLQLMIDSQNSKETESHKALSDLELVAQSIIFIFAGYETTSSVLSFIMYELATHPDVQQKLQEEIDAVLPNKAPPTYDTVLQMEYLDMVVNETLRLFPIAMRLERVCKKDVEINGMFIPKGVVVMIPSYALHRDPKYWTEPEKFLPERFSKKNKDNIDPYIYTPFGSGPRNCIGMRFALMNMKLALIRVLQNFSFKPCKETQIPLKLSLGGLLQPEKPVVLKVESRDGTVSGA
Experimental: as §12, §13

CYP2D6 = target: T5, CYP2D6 (Homo sapiens, UniProt P10635); test: CYP inhibition (Cyprotex); format: in vitro ADME; conditions: read-out: CYP inhibition 2D6
T5 construct: Cyprotex (contract assay)
T5 sequence (P10635 whole entry): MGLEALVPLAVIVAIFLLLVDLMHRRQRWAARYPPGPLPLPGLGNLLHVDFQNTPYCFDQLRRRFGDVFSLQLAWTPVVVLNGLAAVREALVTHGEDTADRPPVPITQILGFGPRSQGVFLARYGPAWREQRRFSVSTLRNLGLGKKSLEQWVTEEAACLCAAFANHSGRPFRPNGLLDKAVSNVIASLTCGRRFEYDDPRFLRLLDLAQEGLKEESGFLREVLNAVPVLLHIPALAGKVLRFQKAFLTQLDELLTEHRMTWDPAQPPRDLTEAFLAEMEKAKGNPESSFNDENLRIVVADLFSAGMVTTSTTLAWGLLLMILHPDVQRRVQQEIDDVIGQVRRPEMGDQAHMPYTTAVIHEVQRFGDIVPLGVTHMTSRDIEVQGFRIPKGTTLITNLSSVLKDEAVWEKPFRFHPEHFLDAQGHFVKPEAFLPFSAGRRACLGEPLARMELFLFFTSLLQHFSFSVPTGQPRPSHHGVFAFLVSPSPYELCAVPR
Experimental: as §12, §13

CYP2C19 = target: T6, CYP2C19 (Homo sapiens, UniProt P33261); test: CYP inhibition (Cyprotex); format: in vitro ADME; conditions: read-out: CYP inhibition 2C19
T6 construct: Cyprotex (contract assay)
T6 sequence (P33261 whole entry): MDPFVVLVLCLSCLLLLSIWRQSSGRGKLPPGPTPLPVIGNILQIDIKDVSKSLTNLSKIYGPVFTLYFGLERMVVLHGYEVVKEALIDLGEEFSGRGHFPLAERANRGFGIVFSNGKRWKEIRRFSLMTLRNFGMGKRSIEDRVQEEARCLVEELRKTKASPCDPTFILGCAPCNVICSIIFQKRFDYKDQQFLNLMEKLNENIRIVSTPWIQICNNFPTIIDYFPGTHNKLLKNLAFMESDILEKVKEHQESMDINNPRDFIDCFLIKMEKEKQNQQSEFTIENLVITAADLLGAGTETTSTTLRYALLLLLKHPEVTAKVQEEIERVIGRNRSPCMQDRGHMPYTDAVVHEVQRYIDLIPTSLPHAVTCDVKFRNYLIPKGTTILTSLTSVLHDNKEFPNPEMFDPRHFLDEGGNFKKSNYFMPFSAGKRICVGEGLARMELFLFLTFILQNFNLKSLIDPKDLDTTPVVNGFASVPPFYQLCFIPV
Experimental: as §12, §13

[4] = system: pyocyanin production in PA14 wt; test: Pyocyanin assay in PA14 wt; format: cell-based; conditions: Pseudomonas aeruginosa, PA14, read-out: IC50 pyocyanin
Experimental: The pyocyanin inhibitory effect of the synthesized compounds and the compound (4) loaded SqNPs on PA14 wt were investigated by pyocyanin assay as described in previous work.[2,5] Briefly, PA14 wt was grown in PPGAS medium, overnight, at 37 °C, shaking at 200 rpm. The bacterial suspension was then centrifuged at 7.450 g, washed twice and diluted to a final OD600 (absorption at 600 nm) of 0.02 (2∙10^7 CFU/mL) in fresh PPGAS. 1.5 mL of the […]
(1 picture or pasted object on this page, not shown here) […]
culture was distributed in each well of the 24 well-plate. The free synthesized QSI prepared in DMSO, compound (4) loaded SqNPs were supplemented to bacteria-containing wells (1:100 dilutions). PA14 wt treated with either PBS or drug-free SqNPs (200 μg/mL) served as controls. Following 16 h incubation under aerobic conditions, pyocyanin in 900 μL of bacteria culture was extracted with chloroform and re-extracted with 0.2 M HCl. Pyocyanin production level was measured as the absorption at 520 nm, which was normalized to cell growth measured as OD600. 0.2 M HCl served as blank samples. Three independent experiments were conducted in triplicate. Non-linear regression analysis was performed using […]
(4) loaded SqNPs on PA14 wt. The pyocyanin inhibitory efficacy was improved by a factor of […]
It is noted that as reported in our prior
Figure S2. The production of pyocyanin levels compared to control PA14 wide type (wt) of the samples treated with 200 μg/mL drug free SqNPs. Three independent experiments were conducted in triplicate. […]
(also on this page, place not known: ( 4) -containing -free bacteria re -extracted compo und ( 4) (IC 50 nM ) (IC 50 nM ). drug P A14 5,6,7,8 -tetradeutero-2-heptyl-4(1H)-quinolone standa rd -40 -20 0 20 40 60 80 100 120 0.005 0.05 0.5 pyo production inhibition [%] Compound concentration loaded SqNPs [µM] IC50 = 100 ± 0.018 [nM])

[5] = Metabolic stability, human liver S9; format: in vitro ADME
Experimental: as §1, §2, §3, §4, §5, §6, §7, §8, §9, §10, §11

[6] = Metabolic stability, dog liver S9; format: in vitro ADME; conditions: pooled liver S9 fraction, Table S4, read-out: t1/2 dog liver S9
Experimental: as §1, §2, §3, §4, §5, §6, §7, §8, §9, §10, §11

[7] = pooled mouse liver S9 fraction, Table 2, read-out: Metabolic stability t 1/2 S9 mouse
[8] = pooled human liver S9 fraction, Table 2, read-out: Metabolic stability t 1/2 S9 human

Row | Structure (SMILES) | half-life at 1 μM [1] | IC50 [2] | IC50 (PqsR) | half-life at 1 μM ([3]; pooled liver S9 fraction, Table S4, read-out: t1/2 mouse liver S9) | half-life at 1 μM [3, 7] | IC50 (CYP1A) | IC50 (CYP2C9) | IC50 (CYP3A4) | IC50 (CYP2D6) | IC50 (CYP2C19) | IC50 [4] | half-life at 1 μM [5, 8] | half-life at 1 μM ([5]; pooled liver S9 fraction, Table S4, read-out: t1/2 human liver S9) | half-life at 1 μM [6] | fold higher activity than monosubstituted 11 (PqsR; PqsR reporter-gene IC50, versus 11)
1 | FC(F)(F)c1cc(NCc2cn(-c3ccc(Oc4ccccc4)cc3)nn2)ccn1 [Compound 4] | 92.5 ± 5.4 min | 0.22 ± 0.05 µM | 0.011 µM | 19.9 ± 7.5 min | 29 min | > 25 µM | 16.4 µM | 15 µM | > 25 µM | 20.3 µM | 0.199 µM | 169 min | 67.6 ± 9 min | 72.2 ± 7.6 min | 
2 | COc1ccc(-n2cc(CNc3ccnc(C(F)(F)F)c3)nn2)cc1Cl [Compound 17] |  | 1.6 ± 1.1 µM | 0.008 µM |  | 11 min | 22.1 µM | > 25 µM | > 25 µM | > 25 µM | 3.6 µM and 3.55 µM | 0.35 µM | 42 min |  |  | 10 fold
